Test results reported in patent US20160250128A1, “TARGETED CAPSULES FOR THE DELIVERY OF SKIN WHITENING AGENTS IN THE SKIN” (INFINITEC ACTIVOS, S.L., priority 2013, published 2016).

Legend:
Human melanocytes [1] = test: Melanin determination in treated melanocytes; type: cell-based; details: for % MELANINE CONTENT: determined as in examples 4 and 5, concentration not given
Protocol: (§1) Day 1—Human melanocytes are rise by trypsinization and centrifuge at 1500 rpm (433×g) in an Allegra X-22R (Beckman Coulter) centrifuge during 5 minutes, and then are resuspended in 1 ml of a complete culture medium to count the number of cells. A volume of 10 μl of the cells solution was dyed with Trypan Blue colorant and the cells are counted with a hemocytometer. Then a cell solution is prepared at a concentration of 2.5×10^5 cells/ml in a complete medium and 100 μl of the cell suspension is seed in wells of 96 well plates. The plates are incubated at 37° C. in a 5% CO2 atmosphere.
Day 2—The seed cells are washed and treated with the different products in basal conditions and promelanogenic conditions. For that, the medium is removed of wells and 100 μl of the products in basal medium with 0.5% of FBS is added. Previously, the test products are solubilised in the same medium. Arbutin is solubilised in ethanol.
The products are tested at 3 different concentrations in the presence and absence of the melanogenic inductor (100 μM), i.e. isobutyl methyl-xantine (IBMX). The plates are incubated 37° C. and 5% CO2 during 5 days. The experiments are carried out using 4 wells per condition. The melanin accumulation inside the cells is monitored daily by optical microscopy.
Days 3 and 4—All treatments are renewed every 24 hours.
In order to determine the melanin content in cells treated as described in example 4, the medium is removed from each well and cells are washed with PBS 1N and incubated during 3 days at 37° C. facilitating the solubilisation of the melanin in NaOH.
Day 7—Once the solubilisation of melanin is complete, 50 μl de H2O2 MilliQ is added per well and the content is determined by absorbance using a Synergy II (Biotek Instruments Inc., Winooski, USA) at 390 nm. The mode and SD is calculated for each
The activity of several peptides of formula (II) (listed in table 3 below) to reduce melanine was determined as explained in example 5 after treating the cells as explained in example 4.

Human dermal fibroblasts = test: Cytotoxicity assay (MTT); type: cell-based; details: positive control 0.1% SDS, 48 h
Protocol: (§2) Human dermal fibroblasts and human keratinocytes were used. The isolated cells were cultured in DMEM culture medium supplemented with 10% FCS and were incubated at 37° C. for maintenance treatment. Untreated cells were used as negative control. The positive control was 0.1% SDS. The microcapsules as obtained in Example 1 were tested in the DMEM culture medium at two concentrations: 0.03% and 0.3%. These weight percentages refer to the weight of the microcapsule in relation to the total weight.
(§3) Cells were seeded at 20000 cells per well in a 96-well plate. 24 hours after seeding, cells were incubated under the conditions described above. After 48 h of incubation at 37° C., the culture medium was removed and the MTT reagent was added. Cells were incubated 2 hours at 37° C. DMSO was then added and the absorbance of the formed formazan salt was measured at A 570 nm. Lower absorbance values correspond to cells with lower metabolic activity, which correlates with an increased damage and, therefore, with an increased cytotoxic effect. Thus, the amount of living cells is proportional to the amount of formazan produced.

human keratinocytes = test: Cytotoxicity assay (MTT); type: cell-based; details: positive control 0.1% SDS, 48 h
Protocol: as §2, §3

facial hyperpigmentation = details: clinical studies; cited from earlier work
cultured cells = details: cited from earlier work
Human melanocytes [2] = test: Cell viability of treated melanocytes (CCK-8); type: cell-based; details: IBMX 100 μM alone, control = 100
Protocol: as §1
Day 2—The seed cells are washed and treated with the different products in basal conditions and promelanogenic conditions. […]
The products are tested at 3 different concentrations in the presence and absence of the melanogenic inductor (100 μM), i.e. isobutyl methyl-xantine (IBMX). […] The melanin accumulation inside the cells is monitored daily by optical microscopy. […]
Day 5—Determination of cell viability: In order to determine de number of viable cells, 10 μl of CCK-8 (WST-8) is added in each well. The plates are incubated at 37° C. during 1 hour and the absorbance is measured at 450 nm using Synergy II multimode (Biotek Instruments Inc., Winooski, Estados Unidos). The mode and SD is calculated for each concentration using Microsoft Excel application (see FIG. 2 and table 2)

cultured melanocytes = details: cited from earlier work

Palm-Ile-Ser-(d)Leu-Leu-Asp-(d)Ala-Gln-Ser-NH2 (ISLLDAQS; HELM PEPTIDE1{[CCCCCCCCCCCCCCCC(=O)[*:2]].I.S.[dL].L.D.[dA].Q.S.[am]}$$$$V2.0; SMILES CCCCCCCCCCCCCCCC(=O)N[C@H](C(=O)N[C@@H](CO)C(=O)N[C@H](CC(C)C)C(=O)N[C@@H](CC(C)C)C(=O)N[C@@H](CC(=O)O)C(=O)N[C@H](C)C(=O)N[C@@H](CCC(N)=O)C(=O)N[C@@H](CO)C(N)=O)[C@@H](C)CC) [peptide of formula (II)]
% MELANINE CONTENT (Human melanocytes [1]): 65%

CCCCCCCCCCCCOS(=O)(=O)[O-].[Na+] [SDS]
% cell viability (Human dermal fibroblasts): 30.0% | % cell viability (human keratinocytes): 13.0%

NC(=O)c1cccnc1 [Niacinamide]
appearance of hyperpigmented spots (facial hyperpigmentation): reduce the appearance of hyperpigmented spots | melanosome transfer (cultured cells): inhibit melanosome transfer in cultured cells

Ac-Ile-Ser-Leu-Leu-Asp-Ala-Gln-Ser-NH2 (Ac-ISLLDAQS-NH2) [peptide of formula (II)]
% MELANINE CONTENT (Human melanocytes [1]): 87%

Palm-Ile-Ser-Leu-Leu-Asp-Ala-Gln-Ser-NH2 (ISLLDAQS; HELM PEPTIDE1{[CCCCCCCCCCCCCCCC(=O)[*:2]].I.S.L.L.D.A.Q.S.[am]}$$$$V2.0; SMILES CCCCCCCCCCCCCCCC(=O)N[C@H](C(=O)N[C@@H](CO)C(=O)N[C@@H](CC(C)C)C(=O)N[C@@H](CC(C)C)C(=O)N[C@@H](CC(=O)O)C(=O)N[C@@H](C)C(=O)N[C@@H](CCC(N)=O)C(=O)N[C@@H](CO)C(N)=O)[C@@H](C)CC) [peptide of formula (II)]
% MELANINE CONTENT (Human melanocytes [1]): 85%

CC(C)Cn1c(=O)n(C)c(=O)c2[nH]cnc21 [Isobutyl methyl-xantine (IBMX), Isobutyl methyl-xantine, reference compound]
Cell viability (Human melanocytes [2]): 90% | Melanin content (%) (Human melanocytes [1]; IBMX 100 μM alone, control = 100): 174 ± 12%

Palm-Ile-Ser-Leu-Leu-Asp-(d)Ala-Gln-Ser-NH2 (ISLLDAQS; HELM PEPTIDE1{[CCCCCCCCCCCCCCCC(=O)[*:2]].I.S.L.L.D.[dA].Q.S.[am]}$$$$V2.0; SMILES CCCCCCCCCCCCCCCC(=O)N[C@H](C(=O)N[C@@H](CO)C(=O)N[C@@H](CC(C)C)C(=O)N[C@@H](CC(C)C)C(=O)N[C@@H](CC(=O)O)C(=O)N[C@H](C)C(=O)N[C@@H](CCC(N)=O)C(=O)N[C@@H](CO)C(N)=O)[C@@H](C)CC) [peptide of formula (II)]
% MELANINE CONTENT (Human melanocytes [1]): 78%

C=CCCCCCCCCC(=O)N[C@@H](Cc1ccccc1)C(=O)O [Sepiwhite, N-undecyl-10-enoyl-L-phenylalanine]
melanin production (cultured melanocytes): reduces melanin production in cultured melanocytes

Ac-Ile-Ser-Leu-Leu-Asp-(d)Ala-Gln-Ser-NH2 (ISLLDAQS; HELM PEPTIDE1{[ac].I.S.L.L.D.[dA].Q.S.[am]}$$$$V2.0; SMILES CC[C@H](C)[C@H](NC(C)=O)C(=O)N[C@@H](CO)C(=O)N[C@@H](CC(C)C)C(=O)N[C@@H](CC(C)C)C(=O)N[C@@H](CC(=O)O)C(=O)N[C@H](C)C(=O)N[C@@H](CCC(N)=O)C(=O)N[C@@H](CO)C(N)=O) [peptide of formula (II)]
% MELANINE CONTENT (Human melanocytes [1]): 80%

Ac-Ile-Ser-(d)Leu-Leu-Asp-(d)Ala-Gln-Ser-NH2 (ISLLDAQS; HELM PEPTIDE1{[ac].I.S.[dL].L.D.[dA].Q.S.[am]}$$$$V2.0; SMILES CC[C@H](C)[C@H](NC(C)=O)C(=O)N[C@@H](CO)C(=O)N[C@H](CC(C)C)C(=O)N[C@@H](CC(C)C)C(=O)N[C@@H](CC(=O)O)C(=O)N[C@H](C)C(=O)N[C@@H](CCC(N)=O)C(=O)N[C@@H](CO)C(N)=O) [peptide of formula (II)]
% MELANINE CONTENT (Human melanocytes [1]): 68%
